# Data as given in patent US10011602B2, “Immunological reagents and uses therefor” (THE UNIVERSITY OF MELBOURNE, priority 2012, dated 2018).
# Changes are numbered by the printed parent chain.
# B1: mouse MR1 refolded with 6-FP: tetramers from mouse MR1 (BirA peptide-tagged) refolded with 6-FP (protein, UniProt Q8HWB0 19-341, looked up)
# Major histocompatibility …: RTHSLRYFRLAVSDPGPVVPEFISVGYVDSHPITTYDSVTRQKEPKAPWMAENLAPDHWERYTQLLRGWQQTFKAELRHLQRHYNHSGLHTYQRMIGCELLEDGSTTGFLQYAYDGQDFIIFNKDTLSWLAMDYVAHITKQAWEANLHELQYQKNWLEEECIAWLKRFLEYGRDTLERTEHPVVRTTRKETFPGITTFFCRAHGFYPPEISMTWMKNGEEIAQEVDYGGVLPSGDGTYQTWLSVNLDPQSNDVYSCHVEHCGRQMVLEAPRESGDILRVSTISGTTILIIALAGVGVLIWRRSQELKEVMYQPTQVNEGSSPS
# modifications: BirA tag, tetramer, 6-FP ligand
# B2: rRL-6-CH2OH-loaded mouse Lys43Ala-MR1: tetramers of mouse Lys43Ala-MR1 loaded with rRL-6-CH2OH (protein, UniProt Q8HWB0 19-341, looked up, variant K43A)
# Major histocompatibility …: B1 Major histocompatibility … with K43A
# modifications: tetramer loaded with rRL-6-CH2OH
# notes: tetramers of mouse Lys43Ala-MR1 loaded with rRL-6-CH2OH
# What was measured:
# human PBMC MAIT cells = assay: MR1 tetramer staining of human PBMCs (flow cytometry); format: cell-based; settings: PE-streptavidin tetramers; D5, CD161 co-staining
# Method: Biotinylated MR1 (produced in either of the 2 methods mentioned above) is used to make tetramers by the addition of biotinylated MR1 to PE Streptavidin (#554061, BD Pharmingen) in a 4:1 molar ratio. PE Streptavidin is added sequentially in 1/10 aliquots to biotinylated MR1 at 10 minute intervals to ensure efficient tetramization.
# Human MAIT cells are identified as being D5-positive (D5 mAb stains Vα7.2,-positive T cells; Vα7.2 is the invariant Vα-chain utilized by human MAIT cells) and CD161-positive. Human PBMCs were stained with CD3-PE-Cy7, CD8-PerCP, CD4-APC-Cy7, CD161-APC specific mAbs; as well as the anti-Vα7.2-FITC mAb D5 (generated in-house; human MAIT cells utilize the Vα7.2 alpha chain) and PE-labeled tetramers of mouse MR1-β2m-acetyl-6-Formyl Pterin (mouse MR1 had been refolded with either 6-formyl pterin or acetyl-6-formyl pterin).
# MR1 = molecular target: T1, MR1 (Homo sapiens, UniProt Q95460); assay: Refolding of denatured MR1 and β2m with ligands; format: binding; settings: substance added to MR1/β2m refold
# T1 construct: soluble human MR1 (residues 1-270 of the mature, leaderless protein); made in house
# T1 sequence (Q95460 23-292): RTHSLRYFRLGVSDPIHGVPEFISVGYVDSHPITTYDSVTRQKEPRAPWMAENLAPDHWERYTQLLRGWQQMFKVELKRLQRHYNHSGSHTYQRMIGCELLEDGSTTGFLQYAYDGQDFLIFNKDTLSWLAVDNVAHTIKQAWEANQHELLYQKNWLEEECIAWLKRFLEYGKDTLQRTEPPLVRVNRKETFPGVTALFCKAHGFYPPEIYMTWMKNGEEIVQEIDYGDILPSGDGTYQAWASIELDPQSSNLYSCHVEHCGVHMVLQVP
# T1 sequence (P61769 21-119 partner): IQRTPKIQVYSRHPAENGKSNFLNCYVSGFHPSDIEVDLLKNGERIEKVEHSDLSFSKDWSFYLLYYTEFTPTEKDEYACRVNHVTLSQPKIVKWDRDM
# Method: Genes encoding soluble human MR1 (residues 1-270 of the mature, leaderless protein, lacking the transmembrane and cytoplasmic domains); or human β2m (mature, leaderless protein) were expressed for four hours in BL21 E. coli following induction with 1 mM isopropyl β-D-1-thiogalactopyranoside. E. coli were pelleted and resuspended in a buffer containing 50 mM Tris, 25% (w/v) sucrose, 1 mM EDTA, 10 mM DTT pH 8.0. Inclusion body protein was then extracted by lysis of bacteria in a buffer containing 50 mM Tris pH 8.0, 1% (w/v) Triton X-100, 1% (w/v) sodium deoxycholate, 100 mM NaCl, 10 mM DTT, 5 mM MgCl2, and 1 mg DnaseI per liter of starting culture; and subsequent steps involved homogenization with a polytron homogenizer, centrifugation, and washing inclusion body protein sequentially with firstly a buffer containing 50 mM Tris pH 8, […], 100 mM NaCl, 1 mM EDTA, 1 mM DTT, and secondly a buffer containing 50 mM Tris pH 8.0, 1 mM EDTA, 1 mM DTT. Inclusion body protein was then resuspended in a buffer containing 20 mM Tris pH 8.0, 8 M urea, 0.5 mM EDTA, 1 mM DTT, and following centrifugation the supernatant containing solubilized, denatured inclusion body protein was collected and stored at −80° C.
# 2 mg of 6-formyl pterin, 56 mg of denatured inclusion body MR1 protein, and 28 mg of β2m protein were added to a 400 ml refold buffer solution containing 0.1 M Tris pH 8.5, 2 mM EDTA, 0.4 M arginine, 0.5 mM oxidized glutathione, 5 mM reduced glutathione. Variably, 5M urea was either present or absent. Following an overnight incubation at 4° C., the refold buffer was dialysed against 3 changes of buffer containing 10 mM Tris, pH8.0 over a period of 24 hours. Refolded MR1-β2m-ligand complex was then purified by sequential DEAE (GE Healthcare) anion exchange, S75 16/60 (GE Healthcare) gel filtration, and MonoQ (GE Healthcare) anion exchange chromatography.
# Jurkat.MAIT cells = assay: Activation of Jurkat.MAIT cells (CD69) with C1R antigen presenting cells expressing MR1; format: cell-based, human
# Method: Jurkat cells transduced with a MAIT TCR comprising the TRAV1-2+TRAJ33 invariant α chain, and a TRBV6-1 β chain were tested for activation by addition of Salmonella supernatant to C1R antigen presenting cells expressing MR1 for 16 hours. Jurkat.MAIT cells were subsequently stained with PE-conjugated anti-CD3, and APC-conjugated anti-CD69 antibodies before analysis by flow cytometry. Activation of Jurkat.MAIT cells was measured by an increase in surface CD69 expression. Compounds to be tested for the ability to activate Jurkat.MAIT cells were tested alongside Salmonella supernatant.
# A biological assay for the activation of MAIT T cell receptor (TCR)-expressing T cell lines (into which genes encoding the MAIT TCR alpha and beta chains had been introduced), by antigen presenting cells (expressing MR1 on the cell surface) infected with the bacterium Salmonella typhimurium has been established. This assay measures the increase in expression of the cell surface activation marker, CD69, upon activation of MAIT T cells.
# [1] = test system: Jurkat cells expressing a conventional T cell receptor; assay: Control: inhibition of activation of Jurkat cells expressing a conventional T cell receptor by viral peptide-classical class I complexes; format: cell-based, human; settings: antigen presenting cells displaying viral peptide-classical class I complexes
# Description: Thus, 6-formyl pterin has been identified as a potential antagonist compound, capable of blocking activation of MAIT cells by bacterial activating ligands.
# [2] = test system: human MAIT cells from peripheral blood; assay: Activation of primary MAIT cells from PBMCs (CD69, IFN-γ, TNF-α); format: cell-based; settings: PBMCs with C1R cells expressing MR1
# Method: PBMCs from a healthy donor were mixed with C1R-huMR1 cells (10^5 each/well). Salmonella SL1344 supernatant (2 μl) from cultures grown in LB supplemented with 25 μg/ml streptomycin (Sigma) for 4 hr at 37° C., or compounds (35A, 36A, 48G: 25 μg/ml final, A-6FP: 10 μM final) or PMA (2 ng/ml+ionomycin (1 ng/ml) added in a total volume of 220 μl RF-10, and incubated overnight at 37° C. Cells were stained with anti-CD3-PE-Cy7 (eBioscience, 20 μg/ml), anti-CD4-APC-Cy7 (Biolegend, 1.7 μg/ml), anti-CD161-APC (Miltenyi Biotec, 1:50), FITC-conjugated D5 (anti-MAIT TCR, 10 μg/ml) and either anti-CD69-PE (BD Biosciences 1:50), anti-IFNγ-PE (BD Pharmingen 10 μg/ml) or anti-TNFα-PE (BD Pharmingen 10 μg/ml), and analyzed by flow cytometry using a Canto II cytometer and Diva software. For intracellular cytokine staining, brefeldin A (10 μg/ml) was added to the assay after the first 1 hr and the incubation allowed to proceed overnight. Cells were fixed with 1% parformaldehyde after staining for surface markers and permeabilised with 1% saponin during cytokine stains. MAIT cells were defined as CD3^+, CD4^−, CD161^+, D5^+ after gating on PBMCs using FSC and SSC.
# PBMCs from a healthy donor were mixed with C1R cells expressing MR1 (10^5 each/well). Salmonella SL1344 supernatant (2 μl) from cultures grown in LB supplemented with 25 μg/ml streptomycin (Sigma) for 4 hr at 37° C., or compounds (RL-6,7-diMe, RL-6-Me-7-OH, 6FP: 76.2 μM final, rRL-6-HM: 0.152 μM final) or PMA (2 ng/ml+ionomycin (1 ng/ml) added in a total volume of 220 μl RF-10, and incubated overnight at 37° C. Cells were stained with anti-CD3-PE-Cy7 (eBioscience, 20 μg/ml), anti-CD4-APC-Cy7 (Biolegend, 1.7 μg/ml), anti-CD161-APC (Miltenyi Biotec, 1:50), FITC-conjugated D5 (anti-MAIT TCR, 10 μg/ml) and either anti-CD69-PE (BD Biosciences 1:50), anti-IFNγ-PE (BD Pharmingen 10 μg/ml) or anti-TNFα-PE (BD Pharmingen 10 μg/ml), and analyzed by flow cytometry using a Canto II cytometer and Diva software. […] CD69 expression was analysed by flow cytometry. […]
# MAIT cells = assay: Re-presentation assay: refolded soluble MR1 added to antigen presenting cells expressing MR1 and MAIT cells; format: cell-based; settings: MR1 refolded with the named substance
# Jurkat.LC13 line = assay: Activation of control Jurkat.LC13 line in the presence of C1R.HLA-B8 cells; format: cell-based, human
# Description: Next, to formally establish whether 7-hydroxy-6-methyl-8-ribityl lumazine and/or its precursor, 6,7-dimethyl-8-ribityl lumazine, could activate MAIT cells, both compounds were chemically synthesized their ability to enable MR1 refolding and to activate Jurkat.MAIT cells and human MAIT cells from peripheral blood tested. […] Thus, direct precursors of riboflavin biosynthesis activate MAIT cells.
Molecule,Tetramer staining of human PBMC MAIT cells (human PBMC MAIT cells),Ability to refold MR1 into native MR1-β2m complex (MR1),Activation of Jurkat.MAIT cells (increase in surface CD69) (Jurkat.MAIT cells),further results
human wild-type MR1 refolded with 6-FP: control tetramers from human wild-type MR1 refolded with 6-FP,fail to stain,,,
Cc1nc2nc(N)[nH]c(=O)c2nc1C [6-7-dimethylpterin],,inability,,
Nc1nc2nccnc2c(=O)[nH]1 [pterin],,inability,,
"Cc1cc2nc3c(=O)[nH]c(=O)nc-3n(C[C@H](O)[C@H](O)[C@H](O)CO)c2cc1C [riboflavin, reference compound]",,did not form MR1-β2m complexes,did not,
"Nc1nc2ncc(C=O)nc2c(=O)[nH]1 [Compound 6-FP, 6-formyl pterin, reference compound]",,indistinguishable from MR1 refolded with folic acid,did not activate,"Inhibitory effect on activation of Jurkat cells expressing a conventional T cell receptor [1]: no inhibitory effect; Activation of MAIT cells (CD69 upregulation, intracellular IFN-γ and TNF-α) [2]: did not activate"
Nc1nc2ncc(CNc3ccc(C(=O)N[C@@H](CCC(=O)O)C(=O)O)cc3)nc2c(=O)[nH]1 [Folic acid],,yielded significant amounts of native MR1,,Activation of MAIT cells by MR1 refolded with the substance (re-presentation assay) (MAIT cells): failed to activate; Activation of MAIT cells by MR1 refolded with the substance (re-presentation assay) (MAIT cells; listed as folic acid): non-stimulatory
human Leucine151Alanine MR1 refolded with acetyl-6-FP: tetramers from human Leucine151Alanine MR1 (BirA peptide-tagged) refolded with acetyl-6-FP,stain a proportion,,,
"Cc1nc2c(=O)[nH]c(=O)nc-2n(C[C@H](O)[C@H](O)[C@H](O)CO)c1O [Compound 2, 7-hydroxy-6-methyl-8-D-ribityllumazine]",,could be refolded with MR1,activated,"Activation of MAIT cells (CD69 upregulation, intracellular IFN-γ and TNF-α) [2]: specifically activated; Activation of control Jurkat.LC13 line (Jurkat.LC13 line): failed to activate"
B1,can stain a proportion,,,
B2,"identify a CD161-positive, D5-positive population",,,
